Measurements as given in ChEMBL document CHEMBL1201862, “PubChem BioAssay data set” (2004).
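Cultured in 96-well plates, cells were exposed to test compound for 48 hours across five concentrations. The concentration for 50% growth inhibition is given as GI50.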 Active and inactive are the calls of the source. Rule as the data show it: active = GI50 up to about 1.1 µM and inactive = higher.

What was measured:
Test in all cases: NCI anticancer screen, dose series, 48 h
[1] = tested on: MDA-N
[2] = tested on: KM12
[3] = tested on: M14
[4] = tested on: NCI/ADR-RES
[5] = tested on: COLO 205
[6] = tested on: SN12C
[7] = tested on: 786-0
[8] = tested on: SK-OV-3
[9] = tested on: SK-MEL-2
[10] = tested on: HOP-92
[11] = tested on: MOLT-4
[12] = tested on: UACC-62
[13] = tested on: SNB-19
[14] = tested on: UO-31
[15] = tested on: MDA-MB-435
[16] = tested on: SK-MEL-28
[17] = tested on: K562
[18] = tested on: HCT-15
[19] = tested on: UACC-257
[20] = tested on: OVCAR-4

Structure (SMILES) | GI50 [1] | GI50 [2] | GI50 [3] | GI50 [4] | GI50 [5] | GI50 [6] | GI50 [7] | GI50 [8] | GI50 [9] | GI50 [10] | GI50 [11] | GI50 [12] | GI50 [13] | GI50 [14] | GI50 [15] | GI50 [16] | GI50 [17] | GI50 [18] [µM] | GI50 [19] | GI50 [20]
O=C(O)COc1c(Cl)cc(Cl)c2cccnc12 | > 100 µM (inactive) | > 100 µM (inactive) | > 100 µM (inactive) | > 100 µM (inactive) | > 100 µM (inactive) | > 100 µM (inactive) | > 100 µM (inactive) | > 100 µM (inactive) | > 100 µM (inactive) | > 100 µM (inactive) | > 100 µM (inactive) | > 100 µM (inactive) | > 100 µM (inactive) | > 100 µM (inactive) | > 100 µM (inactive) | > 100 µM (inactive) | > 100 µM (inactive) | > 100 | > 100 µM (inactive) | > 100 µM (inactive)
COc1ccc(-c2cc(-c3ccccc3)nc(N)n2)c(O)c1 | 4.55 µM (inactive) | 4.67 µM (inactive) | > 27.3 µM (inactive) | > 52 µM (inactive) | > 100 µM (inactive) | > 25.3 µM (inactive) | > 100 µM (inactive) | 7 µM (inactive) | 7.08 µM (inactive) | > 43 µM (inactive) | 4.16 µM (inactive) | > 28.9 µM (inactive) | > 82.8 µM (inactive) | 2.13 µM (inactive) | 3.56 µM (inactive) | > 83.4 µM (inactive) | 2.19 µM (inactive) | 6.03 | > 100 µM (inactive) | > 74.6 µM (inactive)
FC(F)(Sc1ncccn1)c1nc2ccccc2o1 | > 100 µM (inactive) | > 100 µM (inactive) | > 100 µM (inactive) | > 100 µM (inactive) | > 100 µM (inactive) | > 100 µM (inactive) | > 100 µM (inactive) | > 100 µM (inactive) | > 100 µM (inactive) | 56.8 µM (inactive) | 57.3 µM (inactive) | > 100 µM (inactive) | – | 99.3 µM (inactive) | 99.1 µM (inactive) | > 100 µM (inactive) | 77.4 µM (inactive) | > 100 | > 100 µM (inactive) | > 100 µM (inactive)
COC(C)(C)[C@@H](O)[C@H]1C[C@H](C)[C@@]2(CC[C@]3(C)[C@@H]2CC[C@@H]2[C@@]4(C)CC[C@@H](OC(C)=O)C(C)(C)[C@@H]4C[C@@H](OC4OC(COC(C)=O)C(O)C(O)C4O)[C@]23C)O1 (some centres undefined) | 5.43 µM (inactive) | 1.79 µM (inactive) | 4.8 µM (inactive) | 7.43 µM (inactive) | 2.38 µM (inactive) | 6.43 µM (inactive) | 5.86 µM (inactive) | 4.7 µM (inactive) | 4.75 µM (inactive) | 4.8 µM (inactive) | 2.32 µM (inactive) | 4.93 µM (inactive) | 8.73 µM (inactive) | 4.67 µM (inactive) | 3.29 µM (inactive) | 7.57 µM (inactive) | 3.79 µM (inactive) | 2.39 | 6.44 µM (inactive) | 3.48 µM (inactive)
COC1=CC(=O)c2nc3ccccc3c3ccnc1c23 | 0.448 µM (active) | 4.04 µM (inactive) | 2.9 µM (inactive) | 3.71 µM (inactive) | 6.64 µM (inactive) | 6.82 µM (inactive) | 3.64 µM (inactive) | 26.9 µM (inactive) | 5.64 µM (inactive) | 15.8 µM (inactive) | 4.01 µM (inactive) | 1.07 µM (active) | 12.4 µM (inactive) | 4.35 µM (inactive) | 0.187 µM (active) | 19.7 µM (inactive) | 3.37 µM (inactive) | 0.721 | 5.16 µM (inactive) | 4.89 µM (inactive)
CCCCCCCCCCCCCCCCCCNc1nc(=O)n(C2CC(O)C(COP(=O)(O)OCC3OC(n4ccc(N)nc4=O)C(O)C3O)O2)cc1F (centres undefined) | > 100 µM (inactive) | > 100 µM (inactive) | 9.35 µM (inactive) | 17.9 µM (inactive) | 26.9 µM (inactive) | 27 µM (inactive) | 8.34 µM (inactive) | 53.6 µM (inactive) | > 100 µM (inactive) | 31.1 µM (inactive) | 25.9 µM (inactive) | 80.4 µM (inactive) | 10.6 µM (inactive) | 24.5 µM (inactive) | > 100 µM (inactive) | > 100 µM (inactive) | > 100 µM (inactive) | 12.7 | > 100 µM (inactive) | 93.5 µM (inactive)
CCC/C(Cl)=N\OC(=O)Nc1ccc(OC(F)(F)F)cc1 | 13.5 µM (inactive) | 9.48 µM (inactive) | 6.52 µM (inactive) | 6.98 µM (inactive) | 1.82 µM (inactive) | 8.57 µM (inactive) | 12.3 µM (inactive) | 18.5 µM (inactive) | 17.6 µM (inactive) | 2.22 µM (inactive) | 1.86 µM (inactive) | 18.8 µM (inactive) | 30.3 µM (inactive) | 8.53 µM (inactive) | 22.1 µM (inactive) | 19.6 µM (inactive) | 2.42 µM (inactive) | 2.42 | 19.6 µM (inactive) | 18.6 µM (inactive)
NC1CC2C3CCC2C1C3=O (centres undefined) | > 100 µM (inactive) | > 100 µM (inactive) | > 100 µM (inactive) | > 100 µM (inactive) | > 100 µM (inactive) | > 100 µM (inactive) | > 100 µM (inactive) | > 100 µM (inactive) | > 100 µM (inactive) | > 100 µM (inactive) | > 100 µM (inactive) | > 100 µM (inactive) | > 100 µM (inactive) | > 100 µM (inactive) | > 100 µM (inactive) | > 100 µM (inactive) | > 100 µM (inactive) | > 100 | > 100 µM (inactive) | > 100 µM (inactive)
C=C(C)C(=O)OC1CC2(C)OC2CC(OC(C)=O)/C(C)=C/C2OC(=O)C(=C)C21 (centres undefined) | 2.73 µM (inactive) | 11.2 µM (inactive) | 3.01 µM (inactive) | 2.68 µM (inactive) | 1.52 µM (inactive) | 2.52 µM (inactive) | 2.22 µM (inactive) | 29 µM (inactive) | 5.37 µM (inactive) | 3.64 µM (inactive) | 0.441 µM (active) | 4.57 µM (inactive) | 15.2 µM (inactive) | 2.68 µM (inactive) | 1.18 µM (inactive) | 0.724 µM (active) | 0.56 µM (active) | 0.566 | 6.5 µM (inactive) | 9.48 µM (inactive)
Cc1cc(-c2nc3ccccc3s2)ccc1NC(=O)[C@H](C)N | 10.4 µM (inactive) | 14.4 µM (inactive) | 3.14 µM (inactive) | 18.3 µM (inactive) | 13.2 µM (inactive) | 14.7 µM (inactive) | 11.1 µM (inactive) | 14.9 µM (inactive) | 17.5 µM (inactive) | 15.7 µM (inactive) | 18.2 µM (inactive) | 14.8 µM (inactive) | 15.1 µM (inactive) | 5.78 µM (inactive) | 7.18 µM (inactive) | 15.7 µM (inactive) | 6.95 µM (inactive) | 14.1 | 16.9 µM (inactive) | 12.2 µM (inactive)
Cc1ccc(S(=O)(=O)N/N=C/C2(c3ccccc3)c3ccccc3-c3ccccc32)cc1 | 4.28 µM (inactive) | 7.76 µM (inactive) | 10.9 µM (inactive) | 7.94 µM (inactive) | 3.62 µM (inactive) | 11.7 µM (inactive) | 12.1 µM (inactive) | 15.4 µM (inactive) | 12.2 µM (inactive) | 12.6 µM (inactive) | 7.18 µM (inactive) | 11.2 µM (inactive) | 18.7 µM (inactive) | 5.82 µM (inactive) | 11 µM (inactive) | 14.8 µM (inactive) | 4.56 µM (inactive) | 9.27 | 15.6 µM (inactive) | 10.3 µM (inactive)
COc1ccc2c3c1OC1C34CCN(C)C(C2)C4=CC(I)C1(OC)OC (centres undefined) | 6.14 µM (inactive) | 14.4 µM (inactive) | 14.3 µM (inactive) | 41.5 µM (inactive) | 13.9 µM (inactive) | 5.78 µM (inactive) | 4.15 µM (inactive) | 15 µM (inactive) | 15.6 µM (inactive) | 11.4 µM (inactive) | 3.15 µM (inactive) | 14.6 µM (inactive) | 16.2 µM (inactive) | 14.9 µM (inactive) | 4.12 µM (inactive) | 12.1 µM (inactive) | 2.77 µM (inactive) | 11.8 | 13.2 µM (inactive) | 13.2 µM (inactive)
[N-]=[N+]=Nc1c([N+](=O)[O-])c(Cl)nc2ccccc12 | 2.38 µM (inactive) | 7.16 µM (inactive) | 1.44 µM (inactive) | 2.56 µM (inactive) | 1.74 µM (inactive) | 2.23 µM (inactive) | 0.541 µM (active) | 14.5 µM (inactive) | 1.4 µM (inactive) | 1.95 µM (inactive) | 0.587 µM (active) | 4.37 µM (inactive) | 14.4 µM (inactive) | 0.632 µM (active) | 2.38 µM (inactive) | 2.48 µM (inactive) | 0.463 µM (active) | 1.83 | 1.69 µM (inactive) | 1.9 µM (inactive)
CC(C)(C)c1ccc(S(=O)(=O)N2C(c3cccc(C4CC[C@@H](C(=O)O)N4S(=O)(=O)c4ccc(C(C)(C)C)cc4)c3)CC[C@H]2C(=O)O)cc1 (some centres undefined) | 55.2 µM (inactive) | 53.8 µM (inactive) | 54.1 µM (inactive) | > 100 µM (inactive) | 34 µM (inactive) | 47.3 µM (inactive) | 49.4 µM (inactive) | > 100 µM (inactive) | 30.1 µM (inactive) | 58.1 µM (inactive) | 33 µM (inactive) | 44.9 µM (inactive) | 59.3 µM (inactive) | 33.5 µM (inactive) | 54.7 µM (inactive) | > 100 µM (inactive) | 37.5 µM (inactive) | 43.2 | 53 µM (inactive) | 54.8 µM (inactive)
